In US9422285B2, “Substituted pyrazolo[1,5-A]-pyridine-3-carboxamides and use thereof” (Bayer Pharma Aktiengesellschaft, priority 2014, dated 2016):
Structures can show the parent of a compound that is named as a salt.

target: T1, recombinant guanylate cyclase reporter cell line (Rattus norvegicus, UniProt P19686+P20595); assay: Effect on a recombinant guanylate cyclase reporter cell line (B-2); assay type: cell-based; details: in some cases mean values for individual determinations
T1 construct: expressed in transfected cells
T1 sequence (P19686 1-690): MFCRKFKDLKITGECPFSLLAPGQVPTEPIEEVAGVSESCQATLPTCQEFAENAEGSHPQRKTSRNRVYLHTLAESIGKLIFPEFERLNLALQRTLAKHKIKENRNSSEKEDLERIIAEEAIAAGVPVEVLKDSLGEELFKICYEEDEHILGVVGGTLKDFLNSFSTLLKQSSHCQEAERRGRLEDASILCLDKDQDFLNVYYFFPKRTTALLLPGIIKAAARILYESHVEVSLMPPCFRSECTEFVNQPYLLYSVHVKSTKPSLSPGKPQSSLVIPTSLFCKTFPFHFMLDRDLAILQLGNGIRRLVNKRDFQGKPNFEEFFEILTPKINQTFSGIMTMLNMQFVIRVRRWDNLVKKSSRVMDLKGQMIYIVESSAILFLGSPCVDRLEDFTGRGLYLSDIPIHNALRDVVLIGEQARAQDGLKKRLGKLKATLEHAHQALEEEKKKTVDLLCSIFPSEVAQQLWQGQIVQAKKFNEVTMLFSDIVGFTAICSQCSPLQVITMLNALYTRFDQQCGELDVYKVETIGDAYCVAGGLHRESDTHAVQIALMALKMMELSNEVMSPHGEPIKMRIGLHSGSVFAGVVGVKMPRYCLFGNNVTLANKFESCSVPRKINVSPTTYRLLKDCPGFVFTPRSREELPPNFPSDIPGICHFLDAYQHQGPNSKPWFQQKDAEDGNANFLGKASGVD
T1 sequence (P20595 1-619): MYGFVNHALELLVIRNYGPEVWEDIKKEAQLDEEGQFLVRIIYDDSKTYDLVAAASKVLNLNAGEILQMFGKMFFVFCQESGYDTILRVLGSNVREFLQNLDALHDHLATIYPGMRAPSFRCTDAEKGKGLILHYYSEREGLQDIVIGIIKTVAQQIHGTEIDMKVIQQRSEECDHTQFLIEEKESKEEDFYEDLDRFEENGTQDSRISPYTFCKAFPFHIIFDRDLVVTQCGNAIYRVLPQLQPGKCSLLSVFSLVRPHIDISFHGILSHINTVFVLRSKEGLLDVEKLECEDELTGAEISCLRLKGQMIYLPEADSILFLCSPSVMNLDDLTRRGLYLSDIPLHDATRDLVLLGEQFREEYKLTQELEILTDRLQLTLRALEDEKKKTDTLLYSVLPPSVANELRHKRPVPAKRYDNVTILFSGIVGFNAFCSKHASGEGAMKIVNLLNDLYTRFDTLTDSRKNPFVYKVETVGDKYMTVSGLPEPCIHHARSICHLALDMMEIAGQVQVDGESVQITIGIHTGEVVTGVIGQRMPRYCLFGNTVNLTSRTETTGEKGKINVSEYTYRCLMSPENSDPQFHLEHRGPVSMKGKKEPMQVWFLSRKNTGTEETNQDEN
Experimental: B-2. Effect on a Recombinant Guanylate Cyclase Reporter Cell Line
The cellular effect of the inventive compounds is determined using a recombinant guanylate cyclase reporter cell line, as described in F. Wunder et al., Anal. Biochem. 339, 104-112 (2005).
Representative MEC values (MEC=minimum effective concentration) for the inventive compounds are shown in the table below (in some cases as mean values for individual determinations): […]

MEC (minimum effective concentration) [µM] | Compound
0.3 | Cc1cc(OCc2c(F)cccc2F)n2nc(C)c(C(=O)NCC3(N)CC3)c2c1 [Example 118, N-[(1-Aminocyclopropyl)methyl]-7-[(2,6-difluorobenzyl)oxy]-2,5-dimethylpyrazolo[1,5-a]pyridine-3-carboxamide]
10 | Cc1cc(OCc2c(F)cccc2F)n2nc(C)c(C(=O)NCCC(C)(C)N)c2c1 [Example 121, N-(3-Amino-3-methylbutyl)-7-[(2,6-difluorobenzyl)oxy]-2,5-dimethylpyrazolo[1,5-a]pyridine-3-carboxamide]
0.3 | Cc1cc(OCc2c(F)cccc2F)n2nc(C)c(C(=O)NCC3(N)CCCCC3)c2c1 [Example 124, N-[(1-Aminocyclohexyl)methyl]-7-[(2,6-difluorobenzyl)oxy]-2,5-dimethylpyrazolo[1,5-a]pyridine-3-carboxamide]
3.0 | Cc1cc(OCc2c(F)cccc2F)n2nc(C)c(C(=O)Nc3ccc(N4CCNCC4)c(C(F)(F)F)c3)c2c1 [Example 125, 7-[(2,6-Difluorobenzyl)oxy]-2,5-dimethyl-N-[4-(piperazin-l-yl)-3-(trifluoromethyl)phenyl]pyrazolo[1,5-a]pyridine-3-carboxamide]
3.0 | Cc1cc(OCc2c(F)cccc2F)n2nc(C)c(C(=O)NC[C@@H]3CCCCN3)c2c1 [Example 129, 7-[(2,6-Difluorobenzyl)oxy]-2,5-dimethyl-N-[(2S)-piperidin-2-ylmethyl]pyrazolo[1,5-a]pyridine-3-carboxamide]
3.0 | COC(=O)[C@@H](N)CCCCNC(=O)c1c(C)nn2c(OCc3c(F)cccc3F)cc(C)cc12 [Example 131, Methyl N^6-({7-[(2,6-difluorobenzyl)oxy]-2,5-dimethylpyrazolo[1,5-a]pyridin-3-yl}carbonyl)-L-lysinate]
0.3 | Cc1cc(OCc2c(F)cccc2F)n2nc(C)c(C(=O)NC(CN)c3ccc(F)c(F)c3)c2c1 (stereo not drawn) [Example 133, ent-N-[2-Amino-1-(3,4-difluorophenyl)ethyl]-7-[(2,6-difluorobenzyl)oxy]-2,5-dimethylpyrazolo[1,5-a]pyridine-3-carboxamide]
3.0 | Cc1cc(OCc2c(F)cccc2F)n2nc(C)c(C(=O)NN3CCOCC3)c2c1 [Example 135, 7-[(2,6-Difluorobenzyl)oxy]-2,5-dimethyl-N-(morpholin-4-yl)pyrazolo[1,5-a]pyridine-3-carboxamide]
0.1 | CCCC[C@H](CO)NC(=O)c1c(C)nn2c(OCc3c(F)cccc3F)cc(C)cc12 [Example 144, 7-[(2,6-Difluorobenzyl)oxy]-N-[(2R)-1-hydroxyhexan-2-yl]-2,5-dimethylpyrazolo[1,5-a]pyridine-3-carboxamide]
1.0 | Cc1cc(OCc2c(F)cccc2F)n2nc(C)c(C(=O)N[C@H]3CCNC3=O)c2c1 [Example 149, 7-[(2,6-Difluorobenzyl)oxy]-2,5-dimethyl-N-[(3S)-2-oxopyrrolidin-3-yl]pyrazolo[1,5-a]pyridine-3-carboxamide]
3.0 | Cc1cc(OCc2c(F)cccc2F)n2nc(C)c(C(=O)NCCCS(=O)(=O)NC3CC3)c2c1 [Example 151, N-[3-(Cyclopropylsulphamoyl)propyl]-7-[(2,6-difluorobenzyl)oxy]-2,5-dimethylpyrazolo[1,5-a]pyridine-3-carboxamide]
0.3 | COC(=O)C12CCC(NC(=O)c3c(C)nn4c(OCc5c(F)cccc5F)cc(C)cc34)(CC1)CC2 [Example 152, methyl 4-[({7-[(2,6-difluorobenzyl)oxy]-2,5-dimethylpyrazolo[1,5-a]pyridin-3-yl}carbonyl)amino]bicyclo[2.2.2]octane-1-carboxylate]
3.0 | Cc1cc(OCc2c(F)cccc2F)n2nc(C)c(C(=O)NC34CCC(C(=O)O)(CC3)CC4)c2c1 [Example 153, 4-[({7-[(2,6-Difluorobenzyl)oxy]-2,5-dimethylpyrazolo[1,5-a]pyridin-3-yl}carbonyl)amino]bicyclo[2.2.2]octane-1-carboxylic Acid]
1.0 | Cc1cc(OCc2c(F)cccc2F)n2nc(C)c(C(=O)NC3CCNC(C(F)(F)F)C3)c2c1 (stereo not shown) [Example 154, 7-[(2,6-Difluorobenzyl)oxy]-2,5-dimethyl-N-[2-(trifluoromethyl)piperidin-4-yl]pyrazolo[1,5-a]pyridine-3-carboxamide]
1.0 | COC(=O)C12CC3CC(CC(CNC(=O)c4c(C)nn5c(OCc6c(F)cccc6F)cc(C)cc45)(C3)C1)C2 [Example 155, Methyl 3-{[({7-[(2,6-difluorobenzyl)oxy]-2,5-dimethylpyrazolo[1,5-a]pyridin-3-yl}carbonyl)amino]methyl}adamantane-1-carboxylate]
1.0 | Cc1cc(OCc2c(F)cccc2F)n2nc(C)c(C(=O)NN3CCN(C)CC3)c2c1 [Example 173, 7-[(2,6-Difluorobenzyl)oxy]-2,5-dimethyl-N-(4-methylpiperazin-1-yl)pyrazolo[1,5-a]pyridine-3-carboxamide]
1.0 | Cc1cc(OCc2c(F)cccc2F)n2nc(C)c(C(=O)NNC(=O)CN3CCCCC3)c2c1 [Example 174, 7-[(2,6-Difluorobenzyl)oxy]-2,5-dimethyl-N′-(piperidin-1-ylacetyl)pyrazolo[1,5-a]pyridine-3-carbohydrazide]
10 | Cc1cc(OCc2c(F)cccc2F)n2nc(C)c(C(=O)NNC(=O)CN3CCCC3=O)c2c1 [Example 175, 7-[(2,6-Difluorobenzyl)oxy]-2,5-dimethyl-N′-[(2-oxopyrrolidin-1-yl)acetyl]pyrazolo[1,5-a]pyridine-3-carbohydrazide trifluoroacetate]
0.3 | Cc1cc(OCc2c(F)cccc2F)n2nc(C)c(C(=O)N[C@@H](CO)c3cccs3)c2c1 [Example 176, 7-[(2,6-Difluorobenzyl)oxy]-N-[(1S)-2-hydroxy-1-(2-thienyl)ethyl]-2,5-dimethylpyrazolo[1,5-a]pyridine-3-carboxamide]
1.0 | Cc1cc(OCc2c(F)cccc2F)n2nc(C)c(C(=O)N[C@@H](CO)c3ccc(C)o3)c2c1 [Example 177, 7-[(2,6-Difluorobenzyl)oxy]-N-[(1S)-2-hydroxy-1-(5-methy1-2-furyl)ethyl]-2,5-dimethylpyrazolo[1,5-a]pyridine-3-carboxamide]
1.0 | Cc1cc(OCc2c(F)cccc2F)n2nc(C)c(C(=O)N[C@H](CO)c3ccc(C)o3)c2c1 [Example 178, 7-[(2,6-Difluorobenzyl)oxy]-N-[(1R)-2-hydroxy-1-(5-methyl-2-furyl)ethyl]-2,5-dimethylpyrazolo[1,5-a]pyridine-3-carboxamide]
10 | Cc1cc(OCc2c(F)cccc2F)n2nc(C)c(C(=O)N[C@@H](CO)c3nnc([C@@H](N)C(C)C)o3)c2c1 [Example 179, N-[(1S)-1-{5-[(1S)-1-Amino-2-methylpropyl]-1,3,4-oxadiazol-2-yl}-2-hydroxyethyl]-7-[(2,6-difluorobenzyl)oxy]-2,5-dimethylpyrazolo[1,5-a]pyridine-3-carboxamide]
